The results in this text go back to patent US20250382298A1, “NITROGEN-CONTAINING COMPOUND AND USE THEREOF” (SUZHOU GENHOUSE BIO CO., LTD., priority 2022, published 2025).

A word on the IC50: it is the concentration that gives 50% inhibition.

The target of one series is KIF18A (Homo sapiens (Human), UniProt Q8NI77). The series is described as follows: KIF18A enzymatic activity inhibition, ADP-Glo kit. In kind it is biochemical. The settings on record: 4 nM KIF18A, 30 μM ATP. The essentials: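 KIF18A (1467) at 4 nM was preincubated with compound for 20 min at 37 °C in 15 mM Tris pH 7.5, 10 mM MgCl2, 0.01% Pluronic F-68. The reaction was started with 30 μM ATP and ran 15 min at room temperature.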

The nature of series [1]: Stability test in human liver microsomes. It counts as in vitro ADME, humans. The settings on record: human liver microsomes 0.5 mg/mL, 1.0 μM substrate; for CLint scaled at 1 μM / half-life at 1 μM: pH 7.4; for CLint scaled at 1 μM: read-out: HLM 0.5 CLint(liver); for half-life at 1 μM: read-out: HLM 0.5 T½. As for the experimental part: (§1) The phase I metabolic stability of the compounds in liver microsomes of CD-1 mice, Sprague-Dawley rats, beagle dogs, cynomolgus monkeys, and humans was assessed.
(§2) The animal and human liver microsomes used in the test system were purchased from Xenotech, Corning, or other qualified suppliers and stored in a freezer at a temperature below −60° C. prior to use.
(§3) The test samples and control compounds were separately incubated with animal and human liver microsomes at 37±1° C. for a period of incubation time up to 60 min. The samples were removed at the indicated time points, and the reaction was stopped with acetonitrile or another organic solvent containing an internal standard. After centrifugation, the resulting supernatants were assayed by the liquid chromatography-tandem mass spectrometry (LC-MS/MS) method.
(§4) 73.21 g of dipotassium hydrogen phosphate trihydrate and 10.78 g of potassium dihydrogen phosphate were dissolved in 4000 mL of ultrapure water. The solution was adjusted to pH 7.40±0.10 with 10% phosphoric acid or 1 M potassium hydroxide to make a final concentration of 100 mM.
(§5) The test sample powder was prepared into a stock solution at a certain concentration with DMSO or another organic solvent, which was then further diluted with a suitable organic solvent.
(§6) Microsomes of each species were diluted into a 2× working solution with a 100 mM potassium phosphate buffer. The final concentration of the microsomes in the reaction system was 0.5 mg/mL.
(§7) An appropriate amount of nicotinamide adenine dinucleotide phosphate (NADP) and isocitric acid (ISO) powder was weighed out, dissolved in a magnesium chloride solution, and shaken and mixed well. An appropriate amount of isocitrate dehydrogenase (IDH) was added, and the mixture was mixed well by gently turning upside down. The final concentrations in the reaction system were: 1 mM NADP, 1 mM magnesium chloride, 6 mM ISO, and 1 unit/mL IDH.
(§8) The stop solution was prepared with acetonitrile or another organic solvent containing an internal standard (tolbutamide or another suitable compound). The prepared stop solution was stored in a freezer at 2-8° C.
(§9) Incubation was performed in a 96-well plate. Eight incubation plates were prepared and designated T0, T5, T15, T30, T45, T60, Blank60, and NCF60, respectively. The first 6 plates corresponded to reaction time points of […], respectively. No test sample or control compound was added to the Blank60 plate, and samples were taken after 60 min of incubation. In the NCF60 plate, incubation was performed for 60 min using the potassium phosphate buffer instead of the NADPH regeneration system solution. Three replicates were made for samples in all conditions.
(§10) The microsomes and the test sample or control compound were mixed, and then the incubation plates Blank60, T5, T15, T30, T45, and T60 except for TO and NCF60 were placed in a 37° C. water bath for pre-incubation for about 10 min. In the incubation plate T0, a stop solution was first added, followed by addition of the NADPH regeneration system working solution, and 98 μL of the potassium phosphate buffer was added to each sample well of the incubation plate NCF60 to initiate the reaction. After the pre-incubation of the incubation plates Blank60, T5, T15, T30, T45, and T60 was completed, 98 μL of the NADPH regeneration system working solution was added to each sample well to initiate the reaction. The reaction temperature was 37±1° C., the final volume of the reaction was 200 μL, and the reaction system included 0.5 mg/mL microsomes, 1.0 μM substrate, 1 mM NADP, 6 mM ISO, and 1 unit/ml IDH.
(§11) At 5 min, 15 min, […], 45 min, and 60 min, a cold stop solution containing an internal standard was added to the reaction plate to stop the reaction.
(§12) All the reaction plates after the reaction was stopped were shaken well and centrifuged at 3220×g at 4° C. for 20 min. After the supernatant was diluted at a certain ratio, LC-MS/MS analysis was performed. […]
In general terms: Liver microsomes are a subcellular fraction often used to study metabolism.

The nature of series [2]: Stability test in rat liver microsomes. In kind it is in vitro ADME, Sprague-Dawley rats. The settings on record: rat liver microsomes 0.5 mg/mL, 1.0 μM substrate; for CLint scaled at 1 μM / half-life at 1 μM: Sprague-Dawley, pH 7.4; for CLint scaled at 1 μM: read-out: RLM 0.5 CLint(liver); for half-life at 1 μM: read-out: RLM 0.5 T½. As for the experimental part: as §1, §2, §3, §4, §5, §6, §7, §8, §9, §10, §11, §12

A short description of series [3]: Stability test in mouse liver microsomes. The settings on record: mouse liver microsomes 0.5 mg/mL, 1.0 μM substrate; for CLint scaled at 1 μM / half-life at 1 μM: CD-1, pH 7.4; for CLint scaled at 1 μM: read-out: MLM 0.5 CLint(liver); for half-life at 1 μM: read-out: MLM 0.5 T½. It counts as in vitro ADME, CD-1 mice. The procedure: as §1, §2, §3, §4, §5, §6, §7, §8, §9, §10, §11, §12

Series [4] has as its target cytochrome oxidase P450 1A2 (Homo sapiens (Human), UniProt P05177). The series is described as follows: Inhibition of cytochrome oxidase P450 1A2. It counts as in vitro ADME. The note with it: liver microsomes, CYP1A2.
Series [5] deals with cytochrome oxidase P450 2C9 (Homo sapiens (Human), UniProt P11712). In words: Inhibition of cytochrome oxidase P450 2C9. It counts as in vitro ADME. The settings on record: liver microsomes, CYP2C9. The procedure:
100 mM K-Buffer: 9.5 mL of stock solution A was mixed with 40.5 mL of stock solution B, the total volume was adjusted to 500 mL with ultrapure water, and the buffer was titrated to pH 7.4 with KOH or H3PO4. The test compound powder was prepared into a stock solution at a certain concentration with DMSO or another organic solvent, which was then further diluted with a proper organic solvent. The liver microsomal in vitro incubation system for the CYP450 enzyme metabolism phenotype study was a biochemical reaction of prepared liver microsomes supplemented with a redox coenzyme and an enzyme-specific selective inhibitor under simulated physiological temperature and environment conditions. The concentration of the parent drug or a metabolite thereof in the incubation solution was determined by LC-MS/MS.

The target in series [6] is cytochrome oxidase P450 2C19 (Homo sapiens (Human), UniProt P33261). In words: Inhibition of cytochrome oxidase P450 2C19. It counts as in vitro ADME. The settings on record: liver microsomes, CYP2C19.
Series [7] concerns the target cytochrome oxidase P450 3A4 (Homo sapiens (Human), UniProt P08684). The series is described as follows: Inhibition of cytochrome oxidase P450 3A4 (Midazolam). In kind it is in vitro ADME. The settings on record: liver microsomes, CYP3A4, Midazolam.

cytochrome oxidase P450 2C19, sequence (P33261 whole entry): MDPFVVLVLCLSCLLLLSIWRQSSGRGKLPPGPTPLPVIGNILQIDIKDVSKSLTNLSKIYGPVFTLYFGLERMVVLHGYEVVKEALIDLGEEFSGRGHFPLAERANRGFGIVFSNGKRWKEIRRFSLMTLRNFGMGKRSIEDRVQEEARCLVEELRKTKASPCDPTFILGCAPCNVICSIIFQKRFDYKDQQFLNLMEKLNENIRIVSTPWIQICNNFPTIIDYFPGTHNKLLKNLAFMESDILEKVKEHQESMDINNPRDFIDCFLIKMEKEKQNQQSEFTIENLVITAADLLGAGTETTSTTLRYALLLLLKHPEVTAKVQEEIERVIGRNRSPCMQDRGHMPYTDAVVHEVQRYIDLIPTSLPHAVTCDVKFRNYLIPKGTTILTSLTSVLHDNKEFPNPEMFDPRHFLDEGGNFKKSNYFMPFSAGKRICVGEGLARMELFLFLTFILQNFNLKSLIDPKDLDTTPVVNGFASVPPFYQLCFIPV
cytochrome oxidase P450 3A4, sequence (P08684 whole entry): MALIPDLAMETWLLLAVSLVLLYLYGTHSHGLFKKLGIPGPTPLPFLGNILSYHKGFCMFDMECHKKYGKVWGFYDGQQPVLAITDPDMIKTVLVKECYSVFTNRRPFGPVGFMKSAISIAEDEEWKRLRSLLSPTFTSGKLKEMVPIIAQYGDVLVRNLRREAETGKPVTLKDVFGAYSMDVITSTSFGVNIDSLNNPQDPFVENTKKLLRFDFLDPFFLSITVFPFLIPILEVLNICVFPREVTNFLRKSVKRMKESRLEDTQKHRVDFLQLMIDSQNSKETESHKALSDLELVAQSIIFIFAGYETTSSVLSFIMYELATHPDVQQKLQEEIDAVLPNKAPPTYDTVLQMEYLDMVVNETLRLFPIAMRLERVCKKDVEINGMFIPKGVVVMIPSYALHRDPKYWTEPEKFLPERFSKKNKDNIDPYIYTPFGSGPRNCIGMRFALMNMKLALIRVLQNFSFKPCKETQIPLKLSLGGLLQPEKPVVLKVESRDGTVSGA
cytochrome oxidase P450 1A2, sequence (P05177 whole entry): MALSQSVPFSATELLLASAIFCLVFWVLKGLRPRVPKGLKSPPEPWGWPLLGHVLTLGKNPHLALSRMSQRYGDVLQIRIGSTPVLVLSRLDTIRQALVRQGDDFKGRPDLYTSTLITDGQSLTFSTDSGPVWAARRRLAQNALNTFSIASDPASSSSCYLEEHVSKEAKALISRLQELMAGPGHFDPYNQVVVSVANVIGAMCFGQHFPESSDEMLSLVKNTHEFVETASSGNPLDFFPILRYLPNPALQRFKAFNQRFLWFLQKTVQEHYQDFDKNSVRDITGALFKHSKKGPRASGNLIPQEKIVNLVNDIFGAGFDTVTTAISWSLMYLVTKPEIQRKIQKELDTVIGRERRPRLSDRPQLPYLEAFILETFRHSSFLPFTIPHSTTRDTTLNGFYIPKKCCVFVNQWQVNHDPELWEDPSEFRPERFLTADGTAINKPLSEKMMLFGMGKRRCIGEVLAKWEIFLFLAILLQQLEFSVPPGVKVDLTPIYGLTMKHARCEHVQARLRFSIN
KIF18A, sequence (Q8NI77 1-467): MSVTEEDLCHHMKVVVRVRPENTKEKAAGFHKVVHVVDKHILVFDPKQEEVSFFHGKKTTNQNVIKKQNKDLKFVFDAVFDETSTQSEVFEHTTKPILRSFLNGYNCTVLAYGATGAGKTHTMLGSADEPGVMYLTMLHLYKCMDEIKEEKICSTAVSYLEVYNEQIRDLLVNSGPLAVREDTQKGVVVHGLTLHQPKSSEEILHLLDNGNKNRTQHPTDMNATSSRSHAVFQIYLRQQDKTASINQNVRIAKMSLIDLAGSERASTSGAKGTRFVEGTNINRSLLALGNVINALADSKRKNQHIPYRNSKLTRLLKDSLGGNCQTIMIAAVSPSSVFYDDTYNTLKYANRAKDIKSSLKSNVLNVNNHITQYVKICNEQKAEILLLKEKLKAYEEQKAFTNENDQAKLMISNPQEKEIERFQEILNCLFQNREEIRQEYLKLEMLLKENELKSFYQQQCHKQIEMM
cytochrome oxidase P450 2C9, sequence (P11712 whole entry): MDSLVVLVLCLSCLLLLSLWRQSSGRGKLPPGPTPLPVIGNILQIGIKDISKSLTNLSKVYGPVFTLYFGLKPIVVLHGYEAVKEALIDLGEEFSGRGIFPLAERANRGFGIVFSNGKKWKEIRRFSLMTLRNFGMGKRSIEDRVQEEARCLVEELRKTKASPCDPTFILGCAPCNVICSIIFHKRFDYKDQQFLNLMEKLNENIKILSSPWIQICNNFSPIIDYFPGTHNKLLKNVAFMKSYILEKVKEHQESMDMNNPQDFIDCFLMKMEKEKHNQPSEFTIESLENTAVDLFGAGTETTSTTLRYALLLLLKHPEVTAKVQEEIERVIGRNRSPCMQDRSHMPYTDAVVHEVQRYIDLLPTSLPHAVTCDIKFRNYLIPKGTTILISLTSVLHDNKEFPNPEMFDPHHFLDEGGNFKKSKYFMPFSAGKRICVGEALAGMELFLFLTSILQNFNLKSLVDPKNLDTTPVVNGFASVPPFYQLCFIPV

In turn, `Cc1cc(NC(=O)c2ccc(NS(=O)(=O)CCO)cc2N2CC3CCC(C3)C2)nc(N2CCC(F)(F)CC2)n1` [Compound 3] registered an IC50 on KIF18A of 19.8 nM.
As to `O=C(Nc1cc2ccccc2c(N2CCC(F)(F)CC2)n1)c1ccc(NS(=O)(=O)CCO)cc1N1CCC2(CC1)CC2` [Compound 6], the IC50 against KIF18A was 95.6 nM; in series [4] it was greater than 10000 nM; in series [5], 5280 nM; in series [6] it was greater than 10000 nM; in series [7] it was greater than 10000 nM. Also, the CLint scaled at 1 μM was less than 8.6 mL/min/kg in series [1], less than 17.3 mL/min/kg in series [2] and less than 38 mL/min/kg in series [3]. The half-life at 1 μM in series [1], in series [2] and in series [3] was greater than 2.42 h throughout.
On KIF18A, `CS(=O)(=O)Nc1ccc(C(=O)Nc2cn3ccnc3c(N3CCC(F)(F)CC3)n2)c(N2CCC3(CC2)CC3)c1` [Compound 10] returned an IC50 of 25.7 nM. Further, the CLint scaled at 1 μM was less than 8.6 mL/min/kg in series [1], 19.3 mL/min/kg in series [2] and 182 mL/min/kg in series [3]. The half-life at 1 μM in series [1] was greater than 2.42 h; in series [2], 2.16 h; in series [3], 0.502 h.
Regarding `O=C(Nc1cc2c(c(N3CCC(F)(F)CC3)n1)COC2)c1ccc(NS(=O)(=O)CCO)cc1N1CCC2(CC1)CC2` [Compound 14], at KIF18A, it took 28.7 nM to reach half-maximal inhibition (IC50). Besides, the CLint scaled at 1 μM in series [1] is 22.3 mL/min/kg; in series [2], 34.3 mL/min/kg; in series [3], 54.1 mL/min/kg. The half-life at 1 μM in series [1] was determined as 0.933 h; in series [2], 1.21 h; in series [3], 1.69 h.
At KIF18A, `O=C(Nc1cc2ccsc2c(N2CCC(F)(F)CC2)n1)c1ccc(NS(=O)(=O)CCO)cc1N1CCC2(CC1)CC2` [Compound 15] gave a half-maximal inhibitory concentration (IC50) of 126 nM. In addition, the CLint scaled at 1 μM in series [1] was less than 8.6 mL/min/kg; in series [2] it was 17.2 mL/min/kg; in series [3] it was 50.6 mL/min/kg. In addition, the figures for the half-life at 1 μM in series [1], in series [2] and in series [3] were greater than 2.42 h, 2.42 h and 1.81 h, respectively.
For `O=C(Nc1cn2ccnc2c(N2CCC(F)(F)CC2)n1)c1ccc(NS(=O)(=O)CCO)cc1N1CC2CCC(C2)C1` [Compound 17], inhibition on KIF18A was half-maximal at 16.4 nM (IC50). This lies in the double-digit nanomolar range.
Take `CS(=O)(=O)Nc1ccc(C(=O)Nc2cn3ccnc3c(N3CCC(F)(F)CC3)n2)c(N2CC3CCC(C3)C2)c1` [Compound 19]: the CLint scaled at 1 μM in series [1] is 11.6 mL/min/kg; in series [2] it was 27.3 mL/min/kg; in series [3], 52.3 mL/min/kg. Further, the half-life at 1 μM amounted to 1.79 h in series [1], 1.52 h in series [2] and 1.75 h in series [3]. The IC50 was greater than 10000 nM in series [4], 9380 nM in series [5], greater than 10000 nM in series [6] and greater than 10000 nM in series [7].
Regarding `O=C(Nc1cc2cccnc2c(N2CCC(F)(F)CC2)n1)c1ccc(NS(=O)(=O)CCO)cc1N1CCC2(CC1)CC2` [Compound 21], the CLint scaled at 1 μM in series [1] was less than 8.6 mL/min/kg; in series [2] it was less than 17.3 mL/min/kg; in series [3], less than 38 mL/min/kg. Besides, the half-life at 1 μM in series [1], in series [2] and in series [3] was greater than 2.42 h each time. In addition, the IC50 in series [4], in series [5], in series [6] and in series [7] was greater than 10000 nM throughout.
The compound `O=C(Nc1cc2cc[nH]c2c(N2CCC(F)(F)CC2)n1)c1ccc(NS(=O)(=O)CCO)cc1N1CCC2(CC1)CC2` [Compound 22] displayed an IC50 at KIF18A of 26.4 nM.
Take `O=C(Nc1cn2ncnc2c(N2CCC(F)(F)CC2)n1)c1ccc(NS(=O)(=O)CCO)cc1N1CCC2(CC1)CC2` [Compound 23]: the IC50 on KIF18A came out at 3.6 nM. The CLint scaled at 1 μM in series [1] was less than 8.6 mL/min/kg; in series [2] it was less than 17.3 mL/min/kg; in series [3], less than 38 mL/min/kg. Also, the half-life at 1 μM in series [1], in series [2] and in series [3] was greater than 2.42 h each time.
At KIF18A, `O=C(Nc1cn2cnnc2c(N2CCC(F)(F)CC2)n1)c1ccc(NS(=O)(=O)CCO)cc1N1CCC2(CC1)CC2` [Compound 24] returned an IC50 of 3.7 nM. Besides, in series [1], the “HLM 0.5 CLint(liver)” value turned out to be 9.4 mL/min/kg and the “HLM 0.5 T½” value was 2.22 h. Also, in series [2], the “RLM 0.5 CLint(liver)” value worked out at 29.5 mL/min/kg and the “RLM 0.5 T½” value is 1.41 h. For the same compound, in series [3], the “MLM 0.5 CLint(liver)” value turned out to be 64.7 mL/min/kg and the “MLM 0.5 T½” value was 1.41 h.
Regarding `O=C(Nc1cn2c(F)cnc2c(N2CCC(F)(F)CC2)n1)c1ccc(NS(=O)(=O)CCO)cc1N1CCC2(CC1)CC2` [Compound 34], the CLint scaled at 1 μM in series [1] is 1.9 mL/min/kg; in series [2], 4.4 mL/min/kg; in series [3], 14.3 mL/min/kg. Further, the half-life at 1 μM stood at 15.3 h in series [1], 9.33 h in series [2] and 6.34 h in series [3]. For the same compound, the IC50 in series [4] is greater than 10000 nM; in series [5], 4460 nM; in series [6], greater than 10000 nM; in series [7] it was greater than 10000 nM.
For the compound `CS(=O)(=O)Nc1ccc(C(=O)Nc2cc3cc[nH]c3c(N3CCC(F)(F)CC3)n2)c(N2CCC3(CC2)CC3)c1` [Compound 47], the figures for the CLint scaled at 1 μM in series [1], in series [2] and in series [3] were 14.3 mL/min/kg, 9 mL/min/kg and 2.3 mL/min/kg, respectively. Also, the half-life at 1 μM in series [1] worked out at 2.02 h; in series [2], 4.59 h; in series [3], 40.3 h. Moreover, the IC50 in series [4] was greater than 10000 nM; in series [5] it was 180 nM; in series [6] it was 980 nM; in series [7], 240 nM.
